Data set [1] deals with Mus musculus. Briefly: Induction of G-CSF production in C57BL/6J mouse model at 100 mg/kg, ip measured for 24 hrs by ELISA analysis. It counts as functional, organism-based. (In general: ELISA stands for enzyme-linked immunosorbent assay.)
Data set [2] relates to Mus musculus. The data set is described as follows: Induction of G-CSF production in C57BL/6J mouse model at 100 mg/kg, sc measured for 24 hrs by ELISA analysis. In kind it is functional, organism-based.
The subject of data set [3] is Mus musculus. Briefly: Radioprotective activity in C57BL/6J mouse assessed as survival rate at 100 mg/kg, sc preincubated with compound for 24 hrs followed by total body irradiation with 8.5 Gy and measured after 20 days by Kaplan-meier plot analysis. In kind it is functional. The note with it: light or radiation study, 504 h, time 21 day.
Data set [4] has as its system Mus musculus. Briefly: Radioprotective activity in C57BL/6J mouse assessed as survival rate at 100 mg/kg, sc preincubated with compound for 24 hrs followed by total body irradiation with 8.5 Gy and measured after 30 days by Kaplan-meier plot analysis. In kind it is functional. The conditions noted are these: time 31 day; for survival at 100 mg/kg: Mus musculus, C57BL/6J, light or radiation study, 744 h.

The nature of data set [5]: Stability in C57BL/6J mouse whole blood assessed as half-life. It counts as ADME, tissue-based.
The nature of data set [6]: Stability in C57BL/6J mouse plasma assessed as half-life. It counts as ADME, cell-free.
The nature of data set [7]: Stability in […] human plasma assessed as half-life. It counts as ADME, cell-free.

The values below come from ChEMBL document CHEMBL6087386, “Radioprotective effectiveness of a novel delta-tocotrienol prodrug on mouse hematopoietic system against 60Co gamma-ray irradiation through inducing granulocyte-colony stimulating factor production” (Eur J Med Chem, 2024).

Calls of active or inactive are those of the source. The rule behind the calls is not given here.

`Cc1c(C)c2c(c(C)c1O)CC[C@@](C)(CCCC(C)CCCC(C)CCCC(C)C)O2` (some centres undefined): the result in data set [1] was inactive.
For orientation: half-life means the time in which the quantity being followed falls by half. For the compound `CC(C)=CCC/C(C)=C/CC/C(C)=C/CC[C@]1(C)CCc2cc(OC(=O)CCCCCC(=O)O)cc(C)c2O1`, the result in data set [2] was Active. Also, the survival at 100 mg/kg in data set [3] stood at 70%; in data set [4] it was 90%. Further, in data set [5], the half-life worked out at 8.6 min.
In the case of `CCN(CC)CCOC(=O)c1ccc(N)cc1` [PROCAINE], the half-life in data set [5] was found to be 12.3 min; in data set [6] it was 13.2 min; in data set [7], 0.7 min.
As for `CC(C)=CCC/C(C)=C/CC/C(C)=C/CC[C@]1(C)CCc2cc(OCCCCCO)cc(C)c2O1`, the result in data set [2] was Active.
On the same count and under the same terms, with `CC(C)=CCC/C(C)=C/CC/C(C)=C/CC[C@]1(C)CCc2cc(OCCCC(=O)O)cc(C)c2O1` the entry was “Active”; with `CC(C)=CCC/C(C)=C/CC/C(C)=C/CC[C@]1(C)CCc2cc(OCCCCO)cc(C)c2O1`, “Active”; with `CC(C)=CCC/C(C)=C/CC/C(C)=C/CC[C@]1(C)CCc2c(C)c(O)cc(C)c2O1`, “Active”.
For `Cc1cc(O)c(C)c2c1O[C@](C)(CCCC(C)CCCC(C)CCCC(C)C)CC2` (some centres undefined), the outcome in data set [1] was inactive.
As to `CC(C)=CCC/C(C)=C/CC/C(C)=C/CC[C@]1(C)CCc2cc(OC(=O)CCCC(=O)O)cc(C)c2O1`, the result in data set [2] was Active. In data set [3], the survival at 100 mg/kg came to 70%. Further, in data set [5], the half-life is 5.5 min.
Regarding `CC(C)=CCC/C(C)=C/CC/C(C)=C/CC[C@]1(C)CCc2cc(OC(=O)c3ccccn3)cc(C)c2O1`, the outcome in data set [2] was Active.
The same measure, in the same setting: with `CNCCOc1cc(C)c2c(c1)CC[C@@](C)(CC/C=C(\C)CC/C=C(\C)CCC=C(C)C)O2` the entry was “Active”; with `CC(C)=CCC/C(C)=C/CC/C(C)=C/CC[C@]1(C)CCc2cc(OC(=O)Cc3cccnc3)cc(C)c2O1`, “Active”; with `CCCC(CCC)C(=O)Oc1cc(C)c2c(c1)CC[C@@](C)(CC/C=C(\C)CC/C=C(\C)CCC=C(C)C)O2`, “Active”.
For `COC(=O)CCC(=O)Oc1cc(C)c2c(c1)CC[C@@](C)(CC/C=C(\C)CC/C=C(\C)CCC=C(C)C)O2`, in data set [5], the half-life came to 30.3 min.
Consider `CC(C)=CCC/C(C)=C/CC/C(C)=C/CC[C@]1(C)CCc2cc(OC(=O)CCC(N)=O)cc(C)c2O1`, for which the result in data set [2] was Active.
On to `CC(C)=CCC/C(C)=C/CC/C(C)=C/CC[C@]1(C)CCc2cc(OC(=O)CCCCC(=O)O)cc(C)c2O1`, for which the outcome in data set [2] was Active. Also, the survival at 100 mg/kg in data set [3] was 70%. Also, the half-life in data set [5] came to 2.1 min.
Consider `CC(C)=CCC/C(C)=C/CC/C(C)=C/CC[C@]1(C)CCc2cc(OC(=O)/C=C/C(=O)O)cc(C)c2O1`, for which, in data set [2], the result was Active. The survival at 100 mg/kg is 70% in data set [3] and 90% in data set [4]. Moreover, in data set [5], the half-life came to 24.1 min.
As for `CC(C)=CCC/C(C)=C/CC/C(C)=C/CC[C@]1(C)CCc2cc(OC(=O)C3CCNCC3)cc(C)c2O1`, in data set [2], the result was Active. The survival at 100 mg/kg in data set [3] and in data set [4] was 70% each time.
`CC(C)=CCC/C(C)=C/CC/C(C)=C/CC[C@]1(C)CCc2cc(OCCC(=O)O)cc(C)c2O1`: the outcome in data set [2] was Active.
With `CC(C)=CCC/C(C)=C/CC/C(C)=C/CC[C@]1(C)CCc2cc(OCCCO)cc(C)c2O1`, the outcome in data set [2] was Active. Also, the survival at 100 mg/kg in data set [3] amounted to 70%. Moreover, in data set [4], the Activity is 80%.
Regarding `CC(C)=CCC/C(C)=C/CC/C(C)=C/CC[C@]1(C)CCc2cc(OCCCCC(=O)O)cc(C)c2O1`, the outcome in data set [2] was Active.
Regarding `CC(C)=CCC/C(C)=C/CC/C(C)=C/CC[C@]1(C)CCc2cc(OC(=O)CN(C)C)cc(C)c2O1`, the result in data set [2] was Active. Also, the survival at 100 mg/kg in data set [3] stood at 70%.
`CC(C)=CCC/C(C)=C/CC/C(C)=C/CC[C@]1(C)CCc2cc(O)c(C)c(C)c2O1`: the outcome in data set [2] was Active.
Same read-out and setting: with `CC(C)=CCC/C(C)=C/CC/C(C)=C/CC[C@]1(C)CCc2cc(OC(=O)c3ccncc3)cc(C)c2O1` the entry was “Active”.
Take `Cc1c(O)cc2c(c1C)O[C@](C)(CCCC(C)CCCC(C)CCCC(C)C)CC2` (some centres undefined): in data set [1], the result was inactive.
Take `CC(C)=CCC/C(C)=C/CC/C(C)=C/CC[C@]1(C)CCc2cc(OCC(C)(C)CO)cc(C)c2O1`: in data set [2], the outcome was Active.
`CC(C)=CCC/C(C)=C/CC/C(C)=C/CC[C@]1(C)CCc2cc(OC(=O)CC(C)(C)C(=O)O)cc(C)c2O1`: the result in data set [2] was Active. Moreover, in data set [3], the survival at 100 mg/kg worked out at 70%.
Regarding `CC(C)=CCC/C(C)=C/CC/C(C)=C/CC[C@]1(C)CCc2cc(OC(=O)C3CCN(C)CC3)cc(C)c2O1`, the result in data set [2] was Active.
On the same count and under the same terms, with `CC(C)=CCC/C(C)=C/CC/C(C)=C/CC[C@]1(C)CCc2cc(OCCN)cc(C)c2O1` the entry was “Active”.
The same measure, in the same setting: with `CC(C)=CCC/C(C)=C/CC/C(C)=C/CC[C@]1(C)CCc2cc(OCC(C)(C)C(=O)O)cc(C)c2O1` the entry was “Active”; with `CC(C)=CCC/C(C)=C/CC/C(C)=C/CC[C@]1(C)CCc2cc(OCCN(C)C)cc(C)c2O1`, “Active”.
Still for that read-out and setting: with `CC(=O)Oc1cc(C)c2c(c1)CC[C@@](C)(CC/C=C(\C)CC/C=C(\C)CCC=C(C)C)O2` the entry was “Active”.
Take `Cc1cc(O)cc2c1O[C@](C)(CCCC(C)CCCC(C)CCCC(C)C)CC2` (some centres undefined): in data set [1], the outcome was inactive.
As for `CC(C)=CCC/C(C)=C/CC/C(C)=C/CC[C@]1(C)CCc2cc(OCC(=O)O)cc(C)c2O1`, the outcome in data set [2] was Active.
On the same count and under the same terms, with `CC(C)=CCC/C(C)=C/CC/C(C)=C/CC[C@]1(C)CCc2cc(OC(=O)c3cccnc3)cc(C)c2O1` the entry was “Active”.
Consider `CC(C)=CCC/C(C)=C/CC/C(C)=C/CC[C@]1(C)CCc2c(C)c(O)c(C)c(C)c2O1`, for which the result in data set [1] was inactive.
